The text below walks through data of ChEMBL document CHEMBL1201862, “PubChem BioAssay data set” (2004).

Calls of active or inactive are those of the source. A value given as a limit tells only on which side of the number the result lay.

Experiment [1] addresses Cytochrome P450 2C19 (Homo sapiens, UniProt P33261). In words: Cytochrome panel assay with activity outcomes. Panel member name: p450-cyp2c19 Compounds with AC50 equal or less than 10 uM are considered active. Conditions: read-out: AC50. It is filed as functional.
In experiment [2] the target is Cytochrome P450 2C9 (Homo sapiens, UniProt P11712).
Sequence of Cytochrome P450 2C9 (P11712 whole entry): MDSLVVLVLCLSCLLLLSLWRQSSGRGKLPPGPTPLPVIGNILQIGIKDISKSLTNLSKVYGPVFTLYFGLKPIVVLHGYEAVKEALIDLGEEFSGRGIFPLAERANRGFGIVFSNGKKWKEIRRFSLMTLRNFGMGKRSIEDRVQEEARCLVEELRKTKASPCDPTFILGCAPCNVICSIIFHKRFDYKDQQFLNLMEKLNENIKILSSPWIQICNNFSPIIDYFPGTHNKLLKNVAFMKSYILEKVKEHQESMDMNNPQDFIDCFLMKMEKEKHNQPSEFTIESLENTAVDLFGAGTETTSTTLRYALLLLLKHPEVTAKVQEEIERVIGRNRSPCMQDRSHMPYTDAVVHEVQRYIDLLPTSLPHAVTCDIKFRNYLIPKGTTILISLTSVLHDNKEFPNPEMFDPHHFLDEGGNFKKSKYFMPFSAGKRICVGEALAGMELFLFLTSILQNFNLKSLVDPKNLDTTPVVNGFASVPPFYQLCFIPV
The nature of experiment [3]: Luminescence Cell-Based Dose Retest to Confirm Inhibitors of Cancer Stem Cells. [Related pubchem assays (depositor defined):AID2717, AID2721]. Conditions: Homo sapiens. It is filed as functional.
The test system of experiment [4] is INS1. In words: INS-1E survival protection against cytokine death – cell-based, luminescence, retest, dose response (AID 449756).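 Also: cell death triggered by IL-1 beta plus TNF-alpha plus IFN-gamma mixture; protective hits raise ATP signal compared with cytokine alone wells.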 It is filed as functional. Particulars: Rattus norvegicus.
The target in experiment [5] is T1, Cytochrome P450 1A2 (Homo sapiens, UniProt P05177).
T1 sequence (P05177 whole entry): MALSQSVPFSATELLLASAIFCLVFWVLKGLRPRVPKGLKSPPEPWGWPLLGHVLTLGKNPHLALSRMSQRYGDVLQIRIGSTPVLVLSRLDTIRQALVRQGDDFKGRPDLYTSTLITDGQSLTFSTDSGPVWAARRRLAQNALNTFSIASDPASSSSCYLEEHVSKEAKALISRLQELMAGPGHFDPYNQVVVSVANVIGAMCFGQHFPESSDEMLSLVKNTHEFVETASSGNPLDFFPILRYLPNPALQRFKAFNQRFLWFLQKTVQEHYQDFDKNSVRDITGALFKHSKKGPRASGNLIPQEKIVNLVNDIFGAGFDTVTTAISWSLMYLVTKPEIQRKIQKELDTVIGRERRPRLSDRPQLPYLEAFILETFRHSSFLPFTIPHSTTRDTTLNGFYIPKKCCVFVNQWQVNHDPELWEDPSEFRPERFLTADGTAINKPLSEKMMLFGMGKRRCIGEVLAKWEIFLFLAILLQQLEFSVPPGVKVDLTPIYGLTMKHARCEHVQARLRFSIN

A short description of experiment [6]: Luminescence Cell-Based Dose Confirmation HTS to Identify Inhibitors of Platelet Dense Granule Release. [Related pubchem assays: 1663 (Primary HTS), 1678 (Summary of Project)]. It is filed as functional.
In experiment [7] the target is Luciferin 4-monooxygenase (Photinus pyralis, UniProt P08659). In words: inhibition of purified Photinus pyralis luciferase – biochemical, luminescence, dose response (AID 1891).
Sequence of Luciferin 4-monooxygenase (P08659 whole entry): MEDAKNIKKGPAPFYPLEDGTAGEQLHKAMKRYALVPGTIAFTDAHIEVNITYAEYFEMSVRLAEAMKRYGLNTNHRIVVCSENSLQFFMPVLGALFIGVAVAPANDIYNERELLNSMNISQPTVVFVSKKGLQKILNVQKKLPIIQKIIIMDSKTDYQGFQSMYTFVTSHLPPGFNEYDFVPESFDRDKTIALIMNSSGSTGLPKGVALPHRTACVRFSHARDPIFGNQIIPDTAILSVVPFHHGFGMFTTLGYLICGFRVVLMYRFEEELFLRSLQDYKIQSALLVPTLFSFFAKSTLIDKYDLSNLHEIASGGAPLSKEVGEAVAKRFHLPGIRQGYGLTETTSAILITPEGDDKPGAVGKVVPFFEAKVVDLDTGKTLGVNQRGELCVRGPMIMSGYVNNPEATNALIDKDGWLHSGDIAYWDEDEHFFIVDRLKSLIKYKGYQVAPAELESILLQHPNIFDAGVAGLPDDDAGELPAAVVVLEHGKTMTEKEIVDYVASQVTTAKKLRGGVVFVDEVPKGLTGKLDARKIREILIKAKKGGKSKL
Experiment [8] can be described thus: viability of uninfected HEp-2 cells – cell-based, HTS, cytotoxicity control for RSV inhibitor project, dose response (AID 2410). Conditions: human respiratory syncytial virus. It is filed as functional.
Experiment [9] concerns the target Cytochrome P450 3A4 (Homo sapiens, UniProt P08684).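 Also: CYP3A4 tested as one member of a cytochrome P450 panel screen.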
In experiment [10] the test system is H4. Description: Luminescence Cell-Based Dose Response HTS to Identify Activators of 5'UTR Stem-Loop Driven Prion Protein mRNA Translation in H4 Neuroglioblastoma Cells. [Related pubchem assays: 1829 (Project Summary), 1814 (Primary HTS)]. It is filed as functional. Conditions: Homo sapiens.
A short description of experiment [11]: Luminescence Cell-Based Dose Confirmation HTS to Identify Activators of 5'UTR Stem-Loop Driven Alpha-Synuclein mRNA Translation in H4 Neuroglioblastoma Cells. [Related pubchem assays: 1829 (Project Summary), 1814 (Primary HTS)]. It is filed as functional.
The nature of experiment [12]: Luminescence Cell-Based Dose Response HTS to Identify Activators of Luciferase Translation or Activity in H4 […] Cells. [Related pubchem assays: 1829 (Project Summary), 1814 (Primary HTS)]. It is filed as functional.

Sequence of Cytochrome P450 2C19 (P33261 whole entry): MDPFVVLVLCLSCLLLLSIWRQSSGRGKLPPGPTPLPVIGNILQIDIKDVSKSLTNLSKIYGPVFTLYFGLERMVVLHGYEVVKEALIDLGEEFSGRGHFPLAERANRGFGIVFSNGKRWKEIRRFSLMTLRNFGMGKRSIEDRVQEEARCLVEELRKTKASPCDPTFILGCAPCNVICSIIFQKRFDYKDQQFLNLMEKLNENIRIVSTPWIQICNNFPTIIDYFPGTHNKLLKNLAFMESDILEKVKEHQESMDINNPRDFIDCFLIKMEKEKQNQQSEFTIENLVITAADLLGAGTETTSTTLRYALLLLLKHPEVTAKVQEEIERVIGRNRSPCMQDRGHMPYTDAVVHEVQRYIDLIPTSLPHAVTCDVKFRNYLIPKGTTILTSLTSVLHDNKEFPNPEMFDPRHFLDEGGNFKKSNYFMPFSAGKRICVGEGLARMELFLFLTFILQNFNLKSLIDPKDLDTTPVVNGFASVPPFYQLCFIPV
Sequence of Cytochrome P450 3A4 (P08684 whole entry): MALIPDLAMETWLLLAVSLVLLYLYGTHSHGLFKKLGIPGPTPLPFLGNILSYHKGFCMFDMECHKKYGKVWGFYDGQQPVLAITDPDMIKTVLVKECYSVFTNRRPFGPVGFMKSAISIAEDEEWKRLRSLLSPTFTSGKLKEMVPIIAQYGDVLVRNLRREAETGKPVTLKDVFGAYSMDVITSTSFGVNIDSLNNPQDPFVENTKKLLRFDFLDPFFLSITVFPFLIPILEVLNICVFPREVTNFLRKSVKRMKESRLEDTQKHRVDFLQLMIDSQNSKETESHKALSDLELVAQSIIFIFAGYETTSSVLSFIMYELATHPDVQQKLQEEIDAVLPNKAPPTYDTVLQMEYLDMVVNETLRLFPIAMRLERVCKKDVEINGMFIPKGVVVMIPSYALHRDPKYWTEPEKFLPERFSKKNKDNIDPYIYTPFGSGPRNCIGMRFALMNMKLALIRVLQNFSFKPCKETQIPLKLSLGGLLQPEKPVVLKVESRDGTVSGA

The term AC50 denotes the concentration at which the activity in the assay is half-maximal. Turning to `COc1ccc(Cc2nnc(NC(=O)CSc3ccc(C)cc3)s2)cc1OC`, the values for the AC50 in experiment [1] and in experiment [2] were 0.891 µM (inconclusive) and 2.51 µM (inconclusive), respectively.

Take `O=C(CCCN1C(=O)/C(=C/c2ccccc2)SC1=S)NCCCn1ccnc1`: the AC50 in experiment [3] was 76.3 µM (active); in [4] it was 21.2 µM (active).

Turning to `COc1ccc(-c2nc3ccccc3c(=O)n2N)cc1`, the AC50 in experiment [1] was 0.631 µM (inconclusive); in [2], 2.82 µM (inconclusive).

Regarding `CNC(=O)[C@H](C)[C@@H]1C[C@@]1(C)[C@@H](NC(=O)OCc1ccccc1)c1ccccc1`, the AC50 in experiment [5] was 20 µM (inconclusive).

The term EC50 denotes the midpoint of the concentration-response curve. Take `Cc1cc(O)nc2ccc(S(=O)(=O)NC3CCCCC3)cc12`: the EC50 in experiment [6] is 3.55 µM (active); in experiment [7], > 112 µM (not active).

As for `COC(=O)c1ccc(/C=C/c2nc(O)c3ccccc3n2)cc1`, the EC50 in experiment [6] was 7.02 µM (active); in [7], 17.7 µM (active).

Regarding `CCOc1cc(S(=O)(=O)Nc2ccc(CC)cc2)ccc1Cl`, in experiment [3], the AC50 was 6.17 µM (active).

As usually defined, the CC50 is the concentration that lowers cell viability or growth by half. Regarding `CNC[C@H](CC1CCCCC1)NC[C@H](CO)NCCc1cccc(C(F)(F)F)c1`, the AC50 in [3] is 7.61 µM (active). Moreover, the CC50 in experiment [8] was 12.5 µM (active).

With `Cc1ccccc1NCc1ccc([N+](=O)[O-])s1`, in experiment [3], the AC50 was 11 µM (active).

Regarding `CCCC/C=C/C(NC(=O)c1ccc(-c2ccccc2)cc1)c1ccccc1` (stereo not given), the AC50 in experiment [5] was 15.8 µM (inconclusive).

On to `CCO[C@H]1OC(C(=O)N2CCN(Cc3ccc4c(c3)OCO4)CC2)=C[C@@H](c2csc3ccccc23)[C@@H]1CCCO`, for which the AC50 in experiment [4] was 6.83 µM (active).

With `O=C(Cn1cnc2c(cnn2-c2ccccc2)c1=O)OCc1ccccc1`, the EC50 in experiment [6] and in experiment [7] was > 112 µM (not active) in each case.

For `CCNC(=O)[C@H]1O[C@@H](n2cnc3c(N)ncnc32)[C@H](O)[C@@H]1O` [NECA], the EC50 in experiment [6] was < 0.088 µM (active).

In the case of `CCOC(=O)C(/C=N/c1ccc(C(O)(C(=O)OCC)C(F)(F)F)cc1C)=C(/O)OCC` (stereo not given), the AC50 in experiment [4] is 6.01 µM (active).

For `O=C(Nc1ccccc1)/C(=C\c1ccc2c(c1)OCO2)NC(=O)c1ccco1`, the figures for the half-maximal activity concentration (AC50) in experiment [5], in [1] and in [9] were 25.1 µM (inconclusive), 22.4 µM (inconclusive) and 20 µM (inconclusive), respectively.

Consider `O=C(NC(=S)Nc1ccc(N2CCCCC2)c(Cl)c1)c1ccc2c(c1)OCCO2`, for which the AC50 in experiment [3] was 2.54 µM (active).

Consider `Nc1nc(-c2ccc3ccccc3c2)cc(-c2cc(-c3ccc4ccccc4c3)nc(N)n2)n1`, for which the AC50 in experiment [5] is 0.501 µM (inconclusive).

As for `CCOC(=O)c1c(C)oc2cc(Br)c(OC(=O)N3CCOCC3)cc12`, the EC50 in experiment [6] and in [7] was > 112 µM (not active) in each case.

Turning to `O=C(Nc1cccnc1)C1(F)C(F)(F)C(F)(F)C(F)(F)C(F)(F)C1(F)F`, the AC50 in [4] is 3.18 µM (active).

Take `COc1ccc2cc(C(=O)N/N=C/c3sc4ccccc4c3O)ccc2c1`: the results for the AC50 in [3] and in experiment [4] were 1.61 µM (active) and 3.02 µM (active), respectively.

With `CC(C)[C@@H](CO)NC(=O)c1ccc2c3n(nc2c1)-c1ccccc1CO3`, the EC50 in experiment [6] is 2.69 µM (active); in experiment [7] it was 6.1 µM (active).

As to `O=C1c2ccccc2C(=O)c2c(NC3CCCCC3)ccc(Nc3ccc(S(=O)(=O)O)cc3)c21`, the AC50 in experiment [5] was 1.26 µM (inconclusive).

In the case of `C[C@@H](C(=O)Nc1ccc2ccccc2c1)[C@@H]1C[C@@]1(C)[C@@H](N)c1ccccc1`, the AC50 in experiment [2] is 25.1 µM (inconclusive).

As to `COc1cccc(OCc2cc(C(=O)N(C)Cc3nccn3C)no2)c1`, the EC50 in experiment [10] is > 120 µM (not active); in experiment [11] it was 9.91 µM (active); in [12], 15.6 µM (active).

As to `CCOC(=O)c1c(-c2ccc(OC)cc2)csc1NC(=O)CCN1C(=O)c2ccccc2C1=O`, the values for the AC50 in [5] and in experiment [9] were 12.6 µM (inconclusive) and 4.47 µM (inconclusive), respectively.
